According to PubChem BioAssay (NCI):
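GI50 = concentration required for 50% inhibition of growth. At the TGI there is no net growth.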

Key:
Experiment in all cases: growth of human tumour cells (NCI), 384-well format
NCI-H522 lung = tested on: NCI-H522 lung
A498 renal = tested on: A498 renal
MDA-MB-231 breast = tested on: MDA-MB-231 breast
NCI-H322M lung = tested on: NCI-H322M lung
UACC-257 melanoma = tested on: UACC-257 melanoma
RPMI-8226 leukemia = tested on: RPMI-8226 leukemia
MDA-MB-468 breast = tested on: MDA-MB-468 breast
NCI-H226 lung = tested on: NCI-H226 lung
OVCAR-4 ovarian = tested on: OVCAR-4 ovarian
SF-268 CNS = tested on: SF-268 CNS
SW-620 colon = tested on: SW-620 colon
SN12C renal = tested on: SN12C renal
A549 NSCLC = tested on: A549 NSCLC
BT-549 breast = tested on: BT-549 breast
SR leukemia = tested on: SR leukemia
SK-MEL-5 melanoma = tested on: SK-MEL-5 melanoma
UACC-62 melanoma = tested on: UACC-62 melanoma
SK-MEL-28 melanoma = tested on: SK-MEL-28 melanoma
MCF7 breast = tested on: MCF7 breast
HOP-62 NSCLC = tested on: HOP-62 NSCLC
HOP-92 NSCLC = tested on: HOP-92 NSCLC
RXF 393 renal = tested on: RXF 393 renal
K-562 leukemia = tested on: K-562 leukemia
HL-60(TB) leukemia = tested on: HL-60(TB) leukemia
HS 578T breast = tested on: HS 578T breast
CCRF-CEM leukemia = tested on: CCRF-CEM leukemia
786-0 renal = tested on: 786-0 renal
IGROV1 ovarian = tested on: IGROV1 ovarian
SK-OV-3 ovarian = tested on: SK-OV-3 ovarian
LOX IMVI melanoma = tested on: LOX IMVI melanoma
HT29 colon = tested on: HT29 colon
MDA-MB-435 melanoma = tested on: MDA-MB-435 melanoma
ACHN renal = tested on: ACHN renal
HCT-15 colon = tested on: HCT-15 colon
MOLT-4 leukemia = tested on: MOLT-4 leukemia
HCC-2998 colon = tested on: HCC-2998 colon
CAKI-1 renal = tested on: CAKI-1 renal
TK-10 renal = tested on: TK-10 renal
EKVX NSCLC = tested on: EKVX NSCLC
M14 melanoma = tested on: M14 melanoma
COLO 205 colon = tested on: COLO 205 colon
OVCAR-3 ovarian = tested on: OVCAR-3 ovarian
OVCAR-5 ovarian = tested on: OVCAR-5 ovarian
OVCAR-8 ovarian = tested on: OVCAR-8 ovarian
SF-539 CNS = tested on: SF-539 CNS
SF-295 CNS = tested on: SF-295 CNS
NCI-H460 NSCLC = tested on: NCI-H460 NSCLC
NCI-H23 lung = tested on: NCI-H23 lung
NCI/ADR-RES ovarian = tested on: NCI/ADR-RES ovarian
UO-31 renal = tested on: UO-31 renal
MALME-3M melanoma = tested on: MALME-3M melanoma
SNB-75 CNS = tested on: SNB-75 CNS
SNB-19 CNS = tested on: SNB-19 CNS
KM12 colon = tested on: KM12 colon
DU-145 prostate = tested on: DU-145 prostate
PC-3 prostate = tested on: PC-3 prostate
T-47D breast = tested on: T-47D breast

Compound `Cc1cc2c(C(N)=O)cccc2n1-c1nc2c(c(NCc3ccccc3)n1)CCCN2` has a GI50 (NCI-H522 lung) of 0.125 µM, a TGI (NCI-H522 lung) of 0.252 µM and a GI50 (A498 renal) of 0.162 µM. For the same compound, the TGI (A498 renal) was 0.303 µM, the GI50 (MDA-MB-231 breast) was 0.181 µM and the TGI (MDA-MB-231 breast) was 0.323 µM. The GI50 (NCI-H322M lung) was 0.2 µM, the TGI (NCI-H322M lung) was 0.374 µM and the GI50 (UACC-257 melanoma) was 0.173 µM. The TGI (UACC-257 melanoma) was 0.313 µM, the GI50 (RPMI-8226 leukemia) was 0.0208 µM and the TGI (RPMI-8226 leukemia) was 0.0415 µM. It also gave a GI50 (MDA-MB-468 breast) of 0.223 µM, a TGI (MDA-MB-468 breast) of 0.369 µM and a GI50 (NCI-H226 lung) of 0.102 µM. The TGI (NCI-H226 lung) was 0.22 µM, the GI50 (OVCAR-4 ovarian) was 0.184 µM and the TGI (OVCAR-4 ovarian) was 0.325 µM. It also gave a GI50 (SF-268 CNS) of 0.174 µM, a TGI (SF-268 CNS) of 0.313 µM and a GI50 (SW-620 colon) of 0.176 µM. For the same compound, the TGI (SW-620 colon) was 0.316 µM, the GI50 (SN12C renal) was 0.175 µM and the TGI (SN12C renal) was 0.315 µM. It also gave a GI50 (A549 NSCLC) of 0.182 µM, a TGI (A549 NSCLC) of 0.339 µM and a GI50 (BT-549 breast) of 0.193 µM. It also gave a TGI (BT-549 breast) of 0.342 µM, a GI50 (SR leukemia) of 0.115 µM and a TGI (SR leukemia) of 0.238 µM. For the same compound, the GI50 (SK-MEL-5 melanoma) was 0.0349 µM, the TGI (SK-MEL-5 melanoma) was 0.106 µM and the GI50 (UACC-62 melanoma) was 0.129 µM. For the same compound, the TGI (UACC-62 melanoma) was 0.258 µM, the GI50 (SK-MEL-28 melanoma) was 0.177 µM and the TGI (SK-MEL-28 melanoma) was 0.318 µM. For the same compound, the GI50 (MCF7 breast) was 0.142 µM, the TGI (MCF7 breast) was 0.343 µM and the GI50 (HOP-62 NSCLC) was 0.167 µM. It also gave a TGI (HOP-62 NSCLC) of 0.305 µM, a GI50 (HOP-92 NSCLC) of 0.154 µM and a TGI (HOP-92 NSCLC) of 0.29 µM. The GI50 (RXF 393 renal) was 0.0785 µM, the TGI (RXF 393 renal) was 0.206 µM and the GI50 (K-562 leukemia) was 0.134 µM. The TGI (K-562 leukemia) was 0.269 µM, the GI50 (HL-60(TB) leukemia) was 0.162 µM and the TGI (HL-60(TB) leukemia) was 0.3 µM. It also gave a GI50 (HS 578T breast) of 0.0788 µM, a TGI (HS 578T breast) of 0.204 µM and a GI50 (CCRF-CEM leukemia) of 0.162 µM. The TGI (CCRF-CEM leukemia) was 0.299 µM, the GI50 ([…]-0 renal) was 0.173 µM and the TGI (786-0 renal) was 0.314 µM. The GI50 (IGROV1 ovarian) was 0.168 µM, the TGI (IGROV1 ovarian) was 0.315 µM and the GI50 (SK-OV-3 ovarian) was 0.246 µM. For the same compound, the TGI (SK-OV-3 ovarian) was 0.497 µM, the GI50 (LOX IMVI melanoma) was 0.101 µM and the TGI (LOX IMVI melanoma) was 0.22 µM. For the same compound, the GI50 (HT29 colon) was 0.168 µM, the TGI (HT29 colon) was 0.31 µM and the GI50 (MDA-MB-435 melanoma) was 0.178 µM. The TGI (MDA-MB-435 melanoma) was 0.32 µM, the GI50 (ACHN renal) was 0.157 µM and the TGI (ACHN renal) was 0.397 µM. For the same compound, the GI50 (HCT-15 colon) was 0.155 µM, the TGI (HCT-15 colon) was 0.295 µM and the GI50 (MOLT-4 leukemia) was 0.15 µM. The TGI (MOLT-4 leukemia) was 0.284 µM, the GI50 (HCC-2998 colon) was 0.166 µM and the TGI (HCC-2998 colon) was 0.305 µM. It also gave a GI50 (CAKI-1 renal) of 0.17 µM, a TGI (CAKI-1 renal) of 0.317 µM and a GI50 (TK-10 renal) of 0.179 µM. It also gave a TGI (TK-10 renal) of 0.362 µM, a GI50 (EKVX NSCLC) of 0.162 µM and a TGI (EKVX NSCLC) of 0.303 µM. The GI50 (M14 melanoma) was 0.17 µM, the TGI (M14 melanoma) was 0.309 µM and the GI50 (COLO 205 colon) was 0.193 µM. For the same compound, the TGI (COLO 205 colon) was 0.339 µM, the GI50 (OVCAR-3 ovarian) was 0.138 µM and the TGI (OVCAR-3 ovarian) was 0.27 µM. It also gave a GI50 (OVCAR-5 ovarian) of 0.183 µM, a TGI (OVCAR-5 ovarian) of 0.326 µM and a GI50 (OVCAR-8 ovarian) of 0.159 µM. For the same compound, the TGI (OVCAR-8 ovarian) was 0.296 µM, the GI50 (SF-539 CNS) was 0.167 µM and the TGI (SF-539 CNS) was 0.305 µM. It also gave a GI50 (SF-295 CNS) of 0.154 µM, a TGI (SF-295 CNS) of 0.29 µM and a GI50 (NCI-H460 NSCLC) of 0.177 µM. It also gave a TGI (NCI-H460 NSCLC) of 0.324 µM, a GI50 (NCI-H23 lung) of 0.134 µM and a TGI (NCI-H23 lung) of 0.263 µM. For the same compound, the GI50 (NCI/ADR-RES ovarian) was 0.182 µM, the TGI (NCI/ADR-RES ovarian) was 0.323 µM and the GI50 (UO-31 renal) was 0.171 µM. For the same compound, the TGI (UO-31 renal) was 0.318 µM, the GI50 (MALME-3M melanoma) was 0.151 µM and the TGI (MALME-3M melanoma) was 0.284 µM. The GI50 (SNB-75 CNS) was 0.194 µM, the TGI (SNB-75 CNS) was 0.338 µM and the GI50 (SNB-19 CNS) was 0.191 µM. The TGI (SNB-19 CNS) was 0.336 µM, the GI50 (KM12 colon) was 0.168 µM and the TGI (KM12 colon) was 0.31 µM. For the same compound, the GI50 (DU-145 prostate) was 0.195 µM, the TGI (DU-145 prostate) was 0.351 µM and the GI50 (PC-3 prostate) was 0.188 µM. For the same compound, the TGI (PC-3 prostate) was 0.331 µM, the GI50 (T-47D breast) was 0.162 µM and the TGI (T-47D breast) was 0.299 µM.
